From patent publication US10611731B2, “5-methyl-6-phenyl-4,5-dihydro-2H-pyridazin-3-one derivative” (OTSUKA PHARMACEUTICAL CO., LTD., priority 2016, dated 2020) come the findings set out here.

Bounds are passed on as bounds.

System in one series: not given
Test: not given
Settings: not given
Broadly, the melting point is the temperature, or range, at which the solid turns liquid. For `Cc1cc(C2=NNC(=O)CC2C)cc(Cl)c1OCCO` (centres unmarked) [Example 4, 6-[3-Chloro-4-(2-hydroxyethoxy)-5-methylphenyl]-5-methyl-4,5-dihydro-2H-pyridazin-3-one], the melting point lay in the range of 157.4 to 157.6 °C.

On to `Cc1cc(C2=NNC(=O)CC2C)cc(Cl)c1OCCCO` (centres unmarked) [Example 17, 6-[3-Chloro-4-(3-hydroxypropoxy)-5-methylphenyl]-5-methyl-4,5-dihydro-2H-pyridazin-3-one], for which the melting point lay within 129.7 to 132.6 °C.

Compound `CC1CC(=O)NN=C1c1cc(Cl)c(OCCCO)c(Br)c1` (centres unmarked) [Example 18, 6-[3-Bromo-5-chloro-4-(3-hydroxypropoxy)phenyl]-5-methyl-4,5-dihydro-2H-pyridazin-3-one] registered a melting point of 153 to 156.6 °C.

Regarding `CC1CC(=O)NN=C1c1ccc(OCCCO)c(Cl)c1O` (centres unmarked) [Example 77, 6-[3-Chloro-2-hydroxy-4-(3-hydroxypropoxy)phenyl]-5-methyl-4,5-dihydro-2H-pyridazin-3-one], the melting point lay within 225 to 225.3 °C.

As for `Cc1c(OCCCO)ccc(C2=NNC(=O)CC2C)c1O` (centres unmarked) [Example 78, 6-[2-Hydroxy-4-(3-hydroxypropoxy)-3-methylphenyl]-5-methyl-4,5-dihydro-2H-pyridazin-3-one], the melting point lay in the range of 199.1 to 200.1 °C.

Compound `Cc1c(OCCCCO)ccc(C2=NNC(=O)CC2C)c1O` (centres unmarked) [Example 87, 6-[2-Hydroxy-4-(4-hydroxybutoxy)-3-methylphenyl]-5-methyl-4,5-dihydro-2H-pyridazin-3-one] came in with a melting point of 178.7 to 179.9 °C.

On to `CC1CC(=O)NN=C1c1ccc(OCCCCO)c(Cl)c1O` (centres unmarked) [Example 88, 6-[3-Chloro-2-hydroxy-4-(4-hydroxybutoxy)phenyl]-5-methyl-4,5-dihydro-2H-pyridazin-3-one], for which the melting point lay in the range of 204.5 to 204.9 °C.

A further series relates to human childhood brain tumor cell lines (PFSK-1). The series is described as follows: Growth inhibitory activity against PFSK-1 cells (WST-8, Cell Counting Kit-8). Particulars: Homo sapiens, 72 h, 3 days incubation with test compound, WST-8 OD 450/630 nm, read-out: IC50 (concentration inhibiting 50% of the cell growth). The class given is cell-based. The procedure, abridged: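 Cells seeded in RPMI 1640 with 10% FBS and preincubated 24 h at 37 °C, 5% CO2, then exposed to compound for 3 days. IC50 (nM) from growth relative to untreated control.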
For the compound `Cc1cc(C2=NNC(=O)CC2C)cc(Cl)c1OCCCO` (centres unmarked) [Example 17, 6-[3-Chloro-4-(3-hydroxypropoxy)-5-methylphenyl]-5-methyl-4,5-dihydro-2H-pyridazin-3-one], the IC50 was determined as 2.9 nM.

`CC1CC(=O)NN=C1c1cc(Cl)c(OCCCO)c(Br)c1` (centres unmarked) [Example 18, 6-[3-Bromo-5-chloro-4-(3-hydroxypropoxy)phenyl]-5-methyl-4,5-dihydro-2H-pyridazin-3-one]: the IC50 was found to be 4 nM.

With `CC1CC(=O)NN=C1c1ccc(OCCCO)c(Cl)c1O` (centres unmarked) [Example 77, 6-[3-Chloro-2-hydroxy-4-(3-hydroxypropoxy)phenyl]-5-methyl-4,5-dihydro-2H-pyridazin-3-one], the IC50 was 5.3 nM.

Turning to `Cc1c(OCCCO)ccc(C2=NNC(=O)CC2C)c1O` (centres unmarked) [Example 78, 6-[2-Hydroxy-4-(3-hydroxypropoxy)-3-methylphenyl]-5-methyl-4,5-dihydro-2H-pyridazin-3-one], the IC50 amounted to 6.6 nM.

Take `Cc1c(OCCCCO)ccc(C2=NNC(=O)CC2C)c1O` (centres unmarked) [Example 87, 6-[2-Hydroxy-4-(4-hydroxybutoxy)-3-methylphenyl]-5-methyl-4,5-dihydro-2H-pyridazin-3-one]: the IC50 was 9.8 nM.

Turning to `CC1CC(=O)NN=C1c1ccc(OCCCCO)c(Cl)c1O` (centres unmarked) [Example 88, 6-[3-Chloro-2-hydroxy-4-(4-hydroxybutoxy)phenyl]-5-methyl-4,5-dihydro-2H-pyridazin-3-one], the IC50 stood at 9.5 nM.

Take `CC1CC(=O)NN=C1c1cc(F)c(OC/C=C\CO)c(Cl)c1F` (centres unmarked) [Example 152, 6-{3-Chloro-2,5-difluoro-4-[(Z)-4-hydroxy-2-butenyloxy]phenyl}-5-methyl-4,5-dihydro-2H-pyridazin-3-one]: the IC50 worked out at 3.4 nM.

On to `Cc1c(OC/C=C\CO)ccc(C2=NNC(=O)CC2C)c1O` (centres unmarked) [Example 153, 6-{2-Hydroxy-4-[(Z)-4-hydroxy-2-butenyloxy]-3-methylphenyl}-5-methyl-4,5-dihydro-2H-pyridazin-3-one], for which the IC50 turned out to be 5.3 nM.

`Cc1c(F)c(C2=NNC(=O)CC2C)cc(Cl)c1OCC(F)(F)CO` (centres unmarked) [Example 158, 6-[5-Chloro-4-(2,2-difluoro-3-hydroxypropoxy)-2-fluoro-3-methylphenyl]-5-methyl-4,5-dihydro-2H-pyridazin-3-one]: the IC50 is 4.3 nM.

As for `Cc1cc(C2=NNC(=O)CC2C)c(F)c(Cl)c1OCC(F)(F)CO` (centres unmarked) [Example 159, 6-[3-Chloro-4-(2,2-difluoro-3-hydroxypropoxy)-2-fluoro-5-methylphenyl]-5-methyl-4,5-dihydro-2H-pyridazin-3-one], the IC50 is less than 1 nM.

On to `Cc1cc(C2=NNC(=O)CC2C)c(F)c(C)c1OCC(F)(F)CO` (centres unmarked) [Example 160, 6-[4-(2,2-Difluoro-3-hydroxypropoxy)-2-fluoro-3,5-dimethylphenyl]-5-methyl-4,5-dihydro-2H-pyridazin-3-one], for which the IC50 was 1.9 nM.

`CC1CC(=O)NN=C1c1cc(F)c(OCC(F)(F)CO)c(Cl)c1F` (centres unmarked) [Example 161, 6-[3-Chloro-4-(2,2-difluoro-3-hydroxypropoxy)-2,5-difluorophenyl]-5-methyl-4,5-dihydro-2H-pyridazin-3-one]: the IC50 came to 2.7 nM.

As for `CC1CC(=O)NN=C1c1ccc(OCC(F)(F)CO)c(Cl)c1O` (centres unmarked) [Example 162, 6-[3-Chloro-4-(2,2-difluoro-3-hydroxypropoxy)-2-hydroxyphenyl]-5-methyl-4,5-dihydro-2H-pyridazin-3-one], the IC50 was found to be 6.4 nM.

For `CCC(O)COc1ccc(C2=NNC(=O)CC2C)c(O)c1Cl` (centres unmarked) [Example 163, 6-[3-Chloro-2-hydroxy-4-(2-hydroxybutoxy)phenyl]-5-methyl-4,5-dihydro-2H-pyridazin-3-one], the IC50 is 5.2 nM.

In the case of `Cc1cc(C2=NNC(=O)CC2C)c(O)c(Cl)c1OCC(C)O` (centres unmarked) [Example 164, 6-[3-Chloro-2-hydroxy-4-(2-hydroxypropoxy)-5-methylphenyl]-5-methyl-4,5-dihydro-2H-pyridazin-3-one], the IC50 was found to be 4.9 nM.

With `CC1CC(=O)NN=C1c1cc(Cl)c(OCC2(O)CC2)c(Br)c1` (centres unmarked) [Example 165, 6-{3-bromo-5-chloro-4-[(1-hydroxycyclopropyl)methoxy]phenyl}-5-methyl-4,5-dihydro-2H-pyridazin-3-one], the IC50 is 2.6 nM.

On to `Cc1c(OCC2(O)CC2)ccc(C2=NNC(=O)CC2C)c1O` (centres unmarked) [Example 166, 6-{2-Hydroxy-4-[(1-hydroxycyclopropyl)methoxy]-3-methylphenyl}-5-methyl-4,5-dihydro-2H-pyridazin-3-one], for which the IC50 was 4.7 nM.

As for `Cc1cc(C2=NNC(=O)CC2C)c(F)c(Cl)c1OCC1(O)CC1` (centres unmarked) [Example 167, 6-{3-Chloro-2-fluoro-4-[(1-hydroxycyclopropyl)methoxy]-5-methylphenyl}-5-methyl-4,5-dihydro-2H-pyridazin-3-one], the IC50 came out at 1.3 nM.

On to `CC1CC(=O)NN=C1c1ccc(OCC2(O)CC2)c(Br)c1F` (centres unmarked) [Example 168, 6-{3-Bromo-2-fluoro-4-[(1-hydroxycyclopropyl)methoxy]phenyl}-5-methyl-4,5-dihydro-2H-pyridazin-3-one], for which the IC50 amounted to 2.3 nM.

With `CC1CC(=O)NN=C1c1cc(F)c(OCC2(O)CC2)c(Br)c1` (centres unmarked) [Example 169, 6-{3-Bromo-5-fluoro-4-[(1-hydroxycyclopropyl)methoxy]phenyl}-5-methyl-4,5-dihydro-2H-pyridazin-3-one], the IC50 came out at 4 nM.

With `CC1CC(=O)NN=C1c1cc(Cl)c(OCC2(O)CC2)c(Cl)c1` (centres unmarked) [Example 170, 6-{3,5-Dichloro-4-[(1-hydroxycyclopropyl)methoxy]phenyl}-5-methyl-4,5-dihydro-2H-pyridazin-3-one], the IC50 was 2.5 nM.

For the compound `Cc1cc(C2=NNC(=O)CC2C)c(F)c(C)c1OCC1(O)CC1` (centres unmarked) [Example 171, 6-{2-Fluoro-4-[(1-hydroxycyclopropyl)methoxy]-3,5-dimethylphenyl}-5-methyl-4,5-dihydro-2H-pyridazin-3-one], the IC50 turned out to be 6.3 nM.

`CC1CC(=O)NN=C1c1cc(F)c(OCC2(O)CC2)c(Cl)c1F` (centres unmarked) [Example 172, 6-{3-Chloro-2,5-difluoro-4-[(1-hydroxycyclopropyl)methoxy]phenyl}-5-methyl-4,5-dihydro-2H-pyridazin-3-one]: the IC50 was 5.2 nM.

In the case of `CC1CC(=O)NN=C1c1ccc(OCC2(O)CC2)c(Cl)c1O` (centres unmarked) [Example 174, 6-{3-Chloro-2-hydroxy-4-[(1-hydroxycyclopropyl)methoxy]phenyl}-5-methyl-4,5-dihydro-2H-pyridazin-3-one], the IC50 is 4.2 nM.

For the compound `Cc1cc(C2=NNC(=O)CC2C)c(O)c(Cl)c1OCC1(O)CC1` (centres unmarked) [Example 175, 6-{3-Chloro-2-hydroxy-4-[(1-hydroxycyclopropyl)methoxy]-5-methylphenyl}-5-methyl-4,5-dihydro-2H-pyridazin-3-one], the IC50 was determined as 4.1 nM.

On to `Cc1c(O)c(C2=NNC(=O)CC2C)cc(Cl)c1OCC1(O)CC1` (centres unmarked) [Example 176, 6-{5-Chloro-2-hydroxy-4-[(1-hydroxycyclopropyl)methoxy]-3-methylphenyl}-5-methyl-4,5-dihydro-2H-pyridazin-3-one], for which the IC50 was found to be 9.2 nM.

As for `Cc1cc(C2=NNC(=O)CC2C)c(F)cc1OC(F)(F)CO` (centres unmarked) [Example 177, 6-[4-(1,1-difluoro-2-hydroxyethoxy)-2-fluoro-5-methylphenyl]-5-methyl-4,5-dihydro-2H-pyridazin-3-one], the IC50 turned out to be 4 nM.

For the compound `Cc1c(OCCCO)ccc(C2=NNC(=O)C[C@H]2C)c1O` [Example 178, (5R)-(−)-6-[2-hydroxy-4-(3-hydroxypropoxy)-3-methylphenyl]-5-methyl-4,5-dihydro-2H-pyridazin-3-one], the IC50 came out at 4.6 nM.

For the compound `Cc1c(OCC(C)(C)O)ccc(C2=NNC(=O)C[C@H]2C)c1O` [Example 179, (5R)-(−)-6-[2-hydroxy-4-(2-hydroxy-2-methylpropoxy)-3-methylphenyl]-5-methyl-4,5-dihydro-2H-pyridazin-3-one], the IC50 came to 3.3 nM.

Consider `C[C@@H]1CC(=O)NN=C1c1ccc(OCCCCO)c(Cl)c1O` [Example 180, (5R)-(−)-6-[3-chloro-2-hydroxy-4-(4-hydroxybutoxy)phenyl]-5-methyl-4,5-dihydro-2H-pyridazin-3-one], for which the IC50 was determined as 6.5 nM.

Regarding `Cc1cc(C2=NNC(=O)C[C@H]2C)c(O)c(Cl)c1OCCCO` [Example 181, (5R)-(−)-6-[3-chloro-2-hydroxy-4-(3-hydroxypropoxy)-5-methylphenyl]-5-methyl-4,5-dihydro-2H-pyridazin-3-one], the IC50 is 3.9 nM.

Take `C[C@@H]1CC(=O)NN=C1c1ccc(OCC(C)(C)O)c(Cl)c1O` [Example 182, (5R)-(−)-6-[3-chloro-2-hydroxy-4-(2-hydroxy-2-methylpropoxy)phenyl]-5-methyl-4,5-dihydro-2H-pyridazin-3-one]: the IC50 is 2.9 nM.

As to `C[C@@H]1CC(=O)NN=C1c1ccc(OC/C=C\CO)c(Cl)c1O` [Example 183, (5R)-(−)-6-{3-chloro-2-hydroxy-4-[(Z)-4-hydroxy-2-butenyloxy]phenyl}-5-methyl-4,5-dihydro-2H-pyridazin-3-one], the IC50 was found to be 4.5 nM.

`CC1CC(=O)NN=C1c1ccc(OCC(C)(C)O)c(C(F)(F)F)c1F` (centres unmarked) [Example 184, 6-[2-fluoro-4-(2-hydroxy-2-methylpropoxy)-3-(trifluromethyl)phenyl]-5-methyl-4,5-dihydro-2H-pyridazin-3-one]: the IC50 turned out to be 2.2 nM.
